Tested on: 192522-019-R-J2-PDC complex tumor spheroid viability
Assay: Anticancer human tumor 192522-019-R-J2-PDC patient-derived colon adenocarcinoma cell line growth inhibition [POLQ]
Details: for IC50: curve of first compound; for viability, T/C: stronger effect = lower value
Outline: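 Growth inhibition in 3D: complex spheroids (tumor PDC, HUVEC, MSC) treated with POLQ inhibitor combinations; where Cmax unknown, highest tested concentration 10 microM, except SN-38 at 1 microM.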

[1] = second compound 0.0316 µM, first compound 0.0316 µM
[2] = second compound 0.0316 µM, first compound 0.1 µM
[3] = second compound 0.0316 µM, first compound 0.316 µM
[4] = second compound 0.0316 µM, first compound 1 µM
[5] = second compound 0.1 µM, first compound 0.0316 µM
[6] = second compound 0.1 µM, first compound 0.1 µM
[7] = second compound 0.1 µM, first compound 0.316 µM
[8] = second compound 0.1 µM, first compound 1 µM
[9] = second compound 0.316 µM, first compound 0.0316 µM
[10] = second compound 0.316 µM, first compound 0.1 µM
[11] = second compound 0.316 µM, first compound 0.316 µM
[12] = second compound 0.316 µM, first compound 1 µM
[13] = second compound 1 µM, first compound 0.0316 µM
[14] = second compound 1 µM, first compound 0.1 µM
[15] = second compound 1 µM, first compound 0.316 µM
[16] = second compound 1 µM, first compound 1 µM
[17] = second compound 3.16 µM, first compound 0.0316 µM
[18] = second compound 3.16 µM, first compound 0.1 µM
[19] = second compound 3.16 µM, first compound 0.316 µM
[20] = second compound 3.16 µM, first compound 1 µM
[21] = second compound 10 µM, first compound 0.0316 µM
[22] = second compound 10 µM, first compound 0.1 µM
[23] = second compound 10 µM, first compound 0.316 µM
[24] = second compound 10 µM, first compound 1 µM
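Also: spheroids exposed to drugs for seven days before reading.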
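For viability, T/C in this document: 100% = DMSO vehicle control viability in luminescence.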

COc1cc2cc(C(=O)CCC(=O)O)sc2cc1OC + Cc1cccc(N(C)C(=O)C2C(O)CCN2c2nc(C)cc(C(F)(F)F)c2C#N)c1
IC50 (second compound 0.0316 µM): > 10000 nM | IC50 (second compound 0.1 µM): > 10000 nM | IC50 (second compound 0.316 µM): > 10000 nM | IC50 (second compound 1 µM): > 10000 nM | IC50 (second compound 3.16 µM): > 10000 nM | IC50 (second compound 10 µM): > 10000 nM | viability, T/C [1]: 114% | viability, T/C [2]: 97.4% | viability, T/C [3]: 94.9% | viability, T/C [4]: 95.8% | viability, T/C (second compound 0.0316 µM, first compound 3.16 µM): 98.7% | viability, T/C (second compound 0.0316 µM, first compound 10 µM): 92.5% | viability, T/C [5]: 107% | viability, T/C [6]: 99.6% | viability, T/C [7]: 96.1% | viability, T/C [8]: 110% | viability, T/C (second compound 0.1 µM, first compound 3.16 µM): 103% | viability, T/C (second compound 0.1 µM, first compound 10 µM): 107% | viability, T/C [9]: 102% | viability, T/C [10]: 100% | viability, T/C [11]: 93.8% | viability, T/C [12]: 101% | viability, T/C (second compound 0.316 µM, first compound 3.16 µM): 104% | viability, T/C (second compound 0.316 µM, first compound 10 µM): 110% | viability, T/C [13]: 101% | viability, T/C [14]: 106% | viability, T/C [15]: 97.7% | viability, T/C [16]: 108% | viability, T/C (second compound 1 µM, first compound 3.16 µM): 108% | viability, T/C (second compound 1 µM, first compound 10 µM): 105% | viability, T/C [17]: 108% | viability, T/C [18]: 104% | viability, T/C [19]: 96.3% | viability, T/C [20]: 96.6% | viability, T/C (second compound 3.16 µM, first compound 3.16 µM): 101% | viability, T/C (second compound 3.16 µM, first compound 10 µM): 105% | viability, T/C [21]: 103% | viability, T/C [22]: 102% | viability, T/C [23]: 103% | viability, T/C [24]: 102% | viability, T/C (second compound 10 µM, first compound 3.16 µM): 111% | viability, T/C (second compound 10 µM, first compound 10 µM): 97.4%

C=CCn1c(=O)c2cnc(Nc3ccc(N4CCN(C)CC4)cc3)nc2n1-c1cccc(C(C)(C)O)n1 + COC1C(OC(N)=O)C(O)C(Oc2ccc3c(O)c(NC(=O)c4ccc(O)c(CC=C(C)C)c4)c(=O)oc3c2C)OC1(C)C
IC50 (second compound 0.0316 µM): 664 nM | IC50 (second compound 0.1 µM): 675 nM | IC50 (second compound 0.316 µM): 656 nM | IC50 (second compound 1 µM): 704 nM | IC50 (second compound 3.16 µM): 737 nM | IC50 (second compound 10 µM): 761 nM | viability, T/C (second compound 0.0316 µM, first compound 0.00316 µM): 108% | viability, T/C (second compound 0.0316 µM, first compound 0.01 µM): 87.3% | viability, T/C [1]: 98.5% | viability, T/C [2]: 93.9% | viability, T/C [3]: 89.2% | viability, T/C [4]: 28.2% | viability, T/C (second compound 0.1 µM, first compound 0.00316 µM): 101% | viability, T/C (second compound 0.1 µM, first compound 0.01 µM): 93.8% | viability, T/C [5]: 98% | viability, T/C [6]: 90.3% | viability, T/C [7]: 82.2% | viability, T/C [8]: 33.7% | viability, T/C (second compound 0.316 µM, first compound 0.00316 µM): 98.6% | viability, T/C (second compound 0.316 µM, first compound 0.01 µM): 91.6% | viability, T/C [9]: 99.4% | viability, T/C [10]: 105% | viability, T/C [11]: 74.5% | viability, T/C [12]: 35.9% | viability, T/C (second compound 1 µM, first compound 0.00316 µM): 95.4% | viability, T/C (second compound 1 µM, first compound 0.01 µM): 96.1% | viability, T/C [13]: 103% | viability, T/C [14]: 106% | viability, T/C [15]: 84.3% | viability, T/C [16]: 34.9% | viability, T/C (second compound 3.16 µM, first compound 0.00316 µM): 92.6% | viability, T/C (second compound 3.16 µM, first compound 0.01 µM): 95.4% | viability, T/C [17]: 90.7% | viability, T/C [18]: 93.5% | viability, T/C [19]: 88% | viability, T/C [20]: 36.2% | viability, T/C (second compound 10 µM, first compound 0.00316 µM): 98.3% | viability, T/C (second compound 10 µM, first compound 0.01 µM): 97.3% | viability, T/C [21]: 102% | viability, T/C [22]: 90% | viability, T/C [23]: 96.2% | viability, T/C [24]: 35.7%
